Like-named read-outs stand apart in the source and are kept apart here.
Tested on: fruit of grape in a farm field
Experimental: To the fruit of grape in a farm field before harvest, potassium hydrogen carbonate diluted with water to a concentration of 10 g/L (Table 17) or 20 g/L (Table 18) was applied three times in total at intervals of 7 days. The grape was harvested 21 days after the first application, and the masses of amino acids contained in each of the fruit of grape treated with potassium hydrogen carbonate and untreated fruit of grape were measured. In addition, the degree of increase in the concentration of each amino acid in the grape treated with potassium hydrogen carbonate in comparison with the concentration of the amino acid in the untreated grape was determined as a ratio of “the concentration of the amino acid in the grape treated with potassium hydrogen carbonate/the concentration of the amino acid in the untreated grape.” Moreover, the sugar contents in the grape treated with potassium hydrogen carbonate and the untreated grape were also measured, and the ratio (the sugar content in the grape treated with potassium hydrogen carbonate/the sugar content in the untreated grape) was determined.
Arg: arginine, GluNH2: glutamine, Orn: ornithine, Ala: alanine, NH3: ammonia, Cit: citrulline, AspNH2: asparagine, a-ABA: α-amino-n-butyric acid, Glu: glutamic acid, Asp: aspartic acid, Thr: threonine, Ser: serine, Lys: lysine, His: histidine, Gly: glycine, Phe: phenylalanine, Sar: sarcosine, Val: valine, Cys: cysteine, b-AiBA: β-aminoisobutyric acid, PEA: phosphoethanolamine, a-AAA: α-aminoadipic acid, EOHNH2: ethanolamine, b-Ala: β-alanine, Leu: leucine, g-ABA: […], Ile: isoleucine, Met: methionine, Urea: urea, Trp: tryptophan, Tyr: tyrosine, and Cysthi: cystathionine.

Which results are given for `O=C([O-])O.[K+]` [Potassium hydrogen carbonate, potassium hydrogen carbonate]?
Ala, Ratio treated/untreated (10 g/L x3): 5.229; Ala, Treated Mass (10 g/L x3): 601.952 ng; Arg, Ratio treated/untreated (10 g/L x3): 10.658; Asp, Ratio treated/untreated (10 g/L x3): 2.694; Asp, Treated Mass (10 g/L x3): 89.293 ng; AspNH2, Ratio treated/untreated (10 g/L x3): 3.987; AspNH2, Treated Mass (10 g/L x3): 14.746 ng; Cit, Ratio treated/untreated (10 g/L x3): 4.673; Cit, Treated Mass (10 g/L x3): 11.464 ng; Cys, Ratio treated/untreated (10 g/L x3): 1.154; Cys, Treated Mass (10 g/L x3): 117.021 ng; Cysthi, Ratio treated/untreated (10 g/L x3): 0.457; Cysthi, Treated Mass (10 g/L x3): 1.016 ng; EOHNH2, Ratio treated/untreated (10 g/L x3): 1.02; EOHNH2, Treated Mass (10 g/L x3): 53.297 ng; Glu, Ratio treated/untreated (10 g/L x3): 2.915; Glu, Treated Mass (10 g/L x3): 1091.265 ng; GluNH2, Ratio treated/untreated (10 g/L x3): 7.046; GluNH2, Treated Mass (10 g/L x3): 347.152 ng; Gly, Ratio treated/untreated (10 g/L x3): 1.553; Gly, Treated Mass (10 g/L x3): 25.939 ng; His, Ratio treated/untreated (10 g/L x3): 1.615; His, Treated Mass (10 g/L x3): 96.252 ng; Ile, Ratio treated/untreated (10 g/L x3): 0.875; Ile, Treated Mass (10 g/L x3): 72.435 ng; Leu, Ratio treated/untreated (10 g/L x3): 1.012; Leu, Treated Mass (10 g/L x3): 110.503 ng; Lys, Ratio treated/untreated (10 g/L x3): 1.768; Lys, Treated Mass (10 g/L x3): 18.865 ng; Met, Ratio treated/untreated (10 g/L x3): 0.839; Met, Treated Mass (10 g/L x3): 6.131 ng; NH3, Ratio treated/untreated (10 g/L x3): 4.713; NH3, Treated Mass (10 g/L x3): 438.689 ng; Orn, Ratio treated/untreated (10 g/L x3): 6.692; Orn, Treated Mass (10 g/L x3): 23.882 ng; PEA, Ratio treated/untreated (10 g/L x3): 1.032; PEA, Treated Mass (10 g/L x3): 87.942 ng; Phe, Ratio treated/untreated (10 g/L x3): 1.527; Phe, Treated Mass (10 g/L x3): 51.201 ng; Sar, Ratio treated/untreated (10 g/L x3): 1.271; Sar, Treated Mass (10 g/L x3): 62.178 ng; Ser, Ratio treated/untreated (10 g/L x3): 2.585; Ser, Treated Mass (10 g/L x3): 360.511 ng; Sugar content, Ratio treated/untreated (10 g/L x3): 1.06; Sugar content, Treated (10 g/L x3): 22.6%; Thr, Ratio treated/untreated (10 g/L x3): 2.615; Thr, Treated Mass (10 g/L x3): 342.259 ng; Total, Ratio treated/untreated (10 g/L x3): 2.203; Total, Treated Mass (10 g/L x3): 1082.09 ng; Trp, Ratio treated/untreated (10 g/L x3): 0.641; Trp, Treated Mass (10 g/L x3): 4.840 ng; Tyr, Ratio treated/untreated (10 g/L x3): 0.59; Tyr, Treated Mass (10 g/L x3): 17.739 ng; Urea, Ratio treated/untreated (10 g/L x3): 0.757; Urea, Treated Mass (10 g/L x3): 105.062 ng; Val, Ratio treated/untreated (10 g/L x3): 1.256; Val, Treated Mass (10 g/L x3): 191.700 ng; a-AAA, Ratio treated/untreated (10 g/L x3): 1.031; a-AAA, Treated Mass (10 g/L x3): 3.261 ng; a-ABA, Ratio treated/untreated (10 g/L x3): 3.246; a-ABA, Treated Mass (10 g/L x3): 9.038 ng; b-AiBA, Ratio treated/untreated (10 g/L x3): 1.129; b-AiBA, Treated Mass (10 g/L x3): 9.663 ng; b-Ala, Ratio treated/untreated (10 g/L x3): 1.019; b-Ala, Treated Mass (10 g/L x3): 197.064 ng; g-ABA, Ratio treated/untreated (10 g/L x3): 0.891; g-ABA, Treated Mass (10 g/L x3): 637.915 ng; Arg, Treated Mass (10 g/L x3, harvest 21 days after first application): 1383.991 ng; 1Mehis, Ratio treated/untreated (20 g/L x3): 1.167; 1Mehis, Treated Mass (20 g/L x3): 1.184 ng; Ala, Ratio treated/untreated (20 g/L x3): 6.161; Ala, Treated Mass (20 g/L x3): 709.236 ng; Arg, Ratio treated/untreated (20 g/L x3): 15.532; Asp, Ratio treated/untreated (20 g/L x3): 2.614; Asp, Treated Mass (20 g/L x3): 86.648 ng; AspNH2, Ratio treated/untreated (20 g/L x3): 7.214; AspNH2, Treated Mass (20 g/L x3): 26.684 ng; Cit, Ratio treated/untreated (20 g/L x3): 12.285; Cit, Treated Mass (20 g/L x3): 30.134 ng; Cys, Ratio treated/untreated (20 g/L x3): 1.41; Cys, Treated Mass (20 g/L x3): 142.979 ng; Cysthi, Ratio treated/untreated (20 g/L x3): 0.3; Cysthi, Treated Mass (20 g/L x3): 0.667 ng; EOHNH2, Ratio treated/untreated (20 g/L x3): 1.164; EOHNH2, Treated Mass (20 g/L x3): 76.497 ng; Glu, Ratio treated/untreated (20 g/L x3): 1.85; Glu, Treated Mass (20 g/L x3): 693.282 ng; GluNH2, Ratio treated/untreated (20 g/L x3): 11.395; GluNH2, Treated Mass (20 g/L x3): 561.408 ng; Gly, Ratio treated/untreated (20 g/L x3): 1.847; Gly, Treated Mass (20 g/L x3): 34.546 ng; His, Ratio treated/untreated (20 g/L x3): 2.312; His, Treated Mass (20 g/L x3): 137.818 ng; Ile, Ratio treated/untreated (20 g/L x3): 1.149; Ile, Treated Mass (20 g/L x3): 95.120 ng; Leu, Ratio treated/untreated (20 g/L x3): 1.387; Leu, Treated Mass (20 g/L x3): 151.405 ng; Lys, Ratio treated/untreated (20 g/L x3): 2.452; Lys, Treated Mass (20 g/L x3): 26.170 ng; Met, Ratio treated/untreated (20 g/L x3): 1.325; Met, Treated Mass (20 g/L x3): 9.698 ng; NH3, Ratio treated/untreated (20 g/L x3): 4.845; NH3, Treated Mass (20 g/L x3): 450.976 ng; Orn, Ratio treated/untreated (20 g/L x3): 11.668; Orn, Treated Mass (20 g/L x3): 41.643 ng; PEA, Ratio treated/untreated (20 g/L x3): 1.644; PEA, Treated Mass (20 g/L x3): 140.112 ng; Phe, Ratio treated/untreated (20 g/L x3): 1.961; Phe, Treated Mass (20 g/L x3): 65.750 ng; Sar, Ratio treated/untreated (20 g/L x3): 1.5191; Sar, Treated Mass (20 g/L x3): 74.309 ng; Ser, Ratio treated/untreated (20 g/L x3): 3.553; Ser, Treated Mass (20 g/L x3): 495.547 ng; Sugar content, Ratio treated/untreated (20 g/L x3): 1.24; Sugar content, Treated (20 g/L x3): 25.9%; Thr, Ratio treated/untreated (20 g/L x3): 3.174; Thr, Treated Mass (20 g/L x3): 415.421 ng; Total, Ratio treated/untreated (20 g/L x3): 2.525; Total, Treated Mass (20 g/L x3): 1239.923 ng; Trp, Ratio treated/untreated (20 g/L x3): 0.973; Trp, Treated Mass (20 g/L x3): 7.348 ng; Tyr, Ratio treated/untreated (20 g/L x3): 0.994; Tyr, Treated Mass (20 g/L x3): 29.898 ng; Val, Ratio treated/untreated (20 g/L x3): 1.587; Val, Treated Mass (20 g/L x3): 242.163 ng; a-AAA, Ratio treated/untreated (20 g/L x3): 1.408; a-AAA, Treated Mass (20 g/L x3): 4.352 ng; a-ABA, Ratio treated/untreated (20 g/L x3): 3.555; a-ABA, Treated Mass (20 g/L x3): 9.898 ng; b-AiBA, Ratio treated/untreated (20 g/L x3): 1.12; b-AiBA, Treated Mass (20 g/L x3): 9.588 ng; b-Ala, Ratio treated/untreated (20 g/L x3): 1.202; b-Ala, Treated Mass (20 g/L x3): 232.373 ng; g-ABA, Ratio treated/untreated (20 g/L x3): 1.811; g-ABA, Treated Mass (20 g/L x3): 1298.441 ng; Arg, Treated Mass (20 g/L x3, harvest 21 days after first application): 2018.4554 ng

— patent US10080366B2, “Agent for increasing sugar content in fruit” (RIKEN, priority 2012, dated 2018)
